This is an account of results in ChEMBL document CHEMBL1201862, “PubChem BioAssay data set” (2004).

Experiment [1] has as its target T1, High affinity choline transporter 1 (Homo sapiens, UniProt Q9GZV3).
T1 sequence (Q9GZV3 whole entry): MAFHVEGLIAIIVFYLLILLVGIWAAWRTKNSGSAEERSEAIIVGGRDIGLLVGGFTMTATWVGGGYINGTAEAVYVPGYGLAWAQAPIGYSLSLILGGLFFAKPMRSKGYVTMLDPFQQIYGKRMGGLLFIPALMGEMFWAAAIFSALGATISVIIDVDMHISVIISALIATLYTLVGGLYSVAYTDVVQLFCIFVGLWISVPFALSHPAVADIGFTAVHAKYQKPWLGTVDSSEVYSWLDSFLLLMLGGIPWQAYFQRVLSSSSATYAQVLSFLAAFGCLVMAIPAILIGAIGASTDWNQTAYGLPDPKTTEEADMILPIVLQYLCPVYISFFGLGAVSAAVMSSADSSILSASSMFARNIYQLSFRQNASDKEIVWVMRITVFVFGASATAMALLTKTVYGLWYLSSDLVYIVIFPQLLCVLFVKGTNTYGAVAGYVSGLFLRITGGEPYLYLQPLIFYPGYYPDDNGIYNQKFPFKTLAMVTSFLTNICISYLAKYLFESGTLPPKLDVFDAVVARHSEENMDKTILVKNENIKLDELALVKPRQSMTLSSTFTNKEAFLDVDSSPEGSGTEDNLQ
Kind of experiment: CHT inhibitors, dose response, cell-based, 5-point CRC, membrane potential dye (AID 504840). It is filed as functional.

Experiment [2] in a line: Vero E6 cell cytotoxicity, dose response, cytotoxicity control for non-replicating M. tuberculosis project, secondary assay (AID 492998). It is filed as functional, VeroE6. As to conditions: Vero C1008.
Experiment [3] deals with T2, Microphthalmia-associated transcription factor (Homo sapiens, UniProt O75030).
T2 sequence (O75030 whole entry): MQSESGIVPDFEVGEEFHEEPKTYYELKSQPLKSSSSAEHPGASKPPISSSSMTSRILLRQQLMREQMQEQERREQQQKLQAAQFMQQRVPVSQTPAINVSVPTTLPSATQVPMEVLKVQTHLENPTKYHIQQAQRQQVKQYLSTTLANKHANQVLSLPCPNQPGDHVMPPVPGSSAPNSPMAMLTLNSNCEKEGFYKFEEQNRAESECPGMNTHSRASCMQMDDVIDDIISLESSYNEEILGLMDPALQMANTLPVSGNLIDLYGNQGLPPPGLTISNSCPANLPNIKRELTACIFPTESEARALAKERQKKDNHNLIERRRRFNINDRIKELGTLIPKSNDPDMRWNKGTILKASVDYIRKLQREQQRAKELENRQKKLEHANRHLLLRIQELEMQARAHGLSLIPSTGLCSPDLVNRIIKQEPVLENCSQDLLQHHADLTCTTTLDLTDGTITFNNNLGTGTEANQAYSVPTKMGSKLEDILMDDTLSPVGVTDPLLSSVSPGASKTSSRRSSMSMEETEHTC
Kind of experiment: TRPM1 promoter luciferase signal decrease, dose response, MITF inhibitor project, cell-based, SK-MEL-5, cherry-picked, set 3 (AID 493073).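 Further: SK-MEL-5 melanoma cells with luciferase driven by the MITF target TRPM1 promoter.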 It is filed as functional.

Experiment [4] can be described thus: microbe, parasite or virus in culture. It is filed as functional. As to conditions: Mycobacterium tuberculosis.
A short description of experiment [5]: Shn3 3'UTR reporter inhibitors, dose response, cell-based, Clone20 osteoblasts, firefly luciferase, cherry-picked (AID 624132).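 Further: firefly luciferase luminescence from reporter carrying the Shn3 3'UTR in osteoblasts.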 It is filed as functional.
The next experiment is described as follows: cells. It is filed as functional.
A short description of experiment [6]: HepG2 cell cytotoxicity, dose response, cytotoxicity control for Shn3 inhibitor project, CellTiter-Glo, cherry-picked (AID 624134). The experiment is classed as functional, cell-based. A general note: In ATP-based viability assays light output follows the ATP content of the culture.
Experiment [7] in a line: HepG2 cell cytotoxicity, dose response, cytotoxicity control for non-replicating M. tuberculosis project (AID 489018). The experiment is classed as functional. Particulars: Mycobacterium tuberculosis.
A short description of experiment [8]: control 3'UTR Renilla luciferase suppression, dose response, counter-screen for Shn3 inhibitor project, cell-based, Clone20-Shn3RL, cherry-picked (AID 624133). It is filed as functional.
In another experiment the test system is A-375. The experiment in a line: A375 melanoma cell viability reduction, dose response, counter-screen for MITF modulator project, cherry-pick samples, set 2 (AID 540335). The experiment is classed as functional, cell-based. As to conditions: Homo sapiens. On the technique in general: Counterscreens check selectivity or assay interference.
Experiment [9] can be described thus: THP-1 cell cytotoxicity, dose response, cytotoxicity control for non-replicating M. tuberculosis project (AID 489025). It is filed as functional.
The target in experiment [10] is 5-hydroxytryptamine receptor 5A (Homo sapiens, UniProt P47898). The experiment in a line: Counterscreen for agonists of OPRM1-OPRD1 heterodimerization: luminescence-based cell-based high throughput dose response assay to identify agonists of 5-hydroxytryptamine (serotonin) 5A receptor (HTR5A). [Related pubchem assays (depositor defined):AID504326, AID504355, AID504692, AID504904, AID504905]. It is filed as functional.

The next experiment deals with Mu-type opioid receptor (Homo sapiens, UniProt P35372). The experiment in a line: Counterscreen for agonists of heterodimerization of the mu 1 (OPRM1) and delta 1 (OPRD1) opioid receptors: Luminescence-based cell-based high throughput dose response assay to identify agonists of OPRM1 homodimerization. It is filed as functional.
Experiment [11] concerns the target Delta-type opioid receptor (Homo sapiens, UniProt P41143). The experiment in a line: Counterscreen for agonists of heterodimerization of the mu 1 (OPRM1) and delta 1 (OPRD1) opioid receptors: Luminescence-based cell-based high throughput dose response assay to identify agonists of OPRD1 homodimerization. [Related pubchem assays (depositor defined):AID504326, AID504355, AID504692, AID504904, AID504905]. It is filed as functional.

For experiment [12], the target named is T3, Short transient receptor potential channel 4 (Mus musculus, UniProt Q9QUQ5).
T3 sequence (Q9QUQ5 whole entry): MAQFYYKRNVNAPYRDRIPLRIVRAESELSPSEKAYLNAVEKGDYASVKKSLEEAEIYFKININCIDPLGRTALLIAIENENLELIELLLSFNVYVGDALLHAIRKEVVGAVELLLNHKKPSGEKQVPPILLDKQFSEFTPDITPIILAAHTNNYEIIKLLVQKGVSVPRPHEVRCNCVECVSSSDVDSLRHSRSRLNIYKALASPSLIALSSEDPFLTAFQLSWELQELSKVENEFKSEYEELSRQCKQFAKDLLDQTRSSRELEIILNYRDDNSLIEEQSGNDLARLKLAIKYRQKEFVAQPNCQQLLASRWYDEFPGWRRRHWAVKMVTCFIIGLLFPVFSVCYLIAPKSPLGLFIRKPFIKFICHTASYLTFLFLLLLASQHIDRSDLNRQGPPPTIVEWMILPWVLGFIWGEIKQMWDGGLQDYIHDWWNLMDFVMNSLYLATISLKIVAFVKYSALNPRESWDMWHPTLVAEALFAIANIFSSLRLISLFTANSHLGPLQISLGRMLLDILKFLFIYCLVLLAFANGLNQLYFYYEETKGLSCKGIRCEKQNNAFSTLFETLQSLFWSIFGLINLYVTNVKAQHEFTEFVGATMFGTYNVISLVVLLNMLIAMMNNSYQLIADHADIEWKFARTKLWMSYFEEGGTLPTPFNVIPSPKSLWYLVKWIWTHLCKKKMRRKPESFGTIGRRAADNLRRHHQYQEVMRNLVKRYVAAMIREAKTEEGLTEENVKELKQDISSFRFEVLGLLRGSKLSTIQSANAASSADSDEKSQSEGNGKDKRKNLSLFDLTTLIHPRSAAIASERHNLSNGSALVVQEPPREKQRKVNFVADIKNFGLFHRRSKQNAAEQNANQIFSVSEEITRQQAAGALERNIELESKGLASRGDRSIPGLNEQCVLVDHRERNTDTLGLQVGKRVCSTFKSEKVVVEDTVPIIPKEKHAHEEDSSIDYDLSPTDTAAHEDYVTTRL
The experiment in a line: mouse TRPC4 channel activators, dose response, cell-based, HEK293 TRPC4/mu-opioid, Fluo-4 calcium (AID 434937). The experiment is classed as functional.

The next experiment concerns the target Paired box protein Pax-8 (Homo sapiens, UniProt Q06710). The experiment in a line: inhibitors of PAX8-driven TPO luciferase reporter, dose response, RMG-I cells, cherry-pick (AID 687027).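 Further: luciferase reporter driven by Pax8 target thyroperoxidase promoter measured by SteadyGlo luminescence.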 It is filed as functional, cell-based.
A further experiment has as its target Beta-galactosidase (Escherichia coli, UniProt Q8VNN2). Kind of experiment: beta-galactosidase enzyme inhibitors and activators, dose response, artefact control for CCR6 antagonist project, biochemical, E. coli enzyme, set 3 (AID 504712). The experiment is classed as functional.
The nature of experiment [13]: Luminescence Cell-Based Dose Retest to Confirm Inhibitors of Cancer Stem Cells. [Related pubchem assays (depositor defined):AID2717, AID2721]. The experiment is classed as functional. As to conditions: Homo sapiens.
Experiment [14] is described as follows: inhibitors of intracellular T. cruzi replication, confirmation, NIH3T3 host cells, beta-gal luminescence (AID 2044).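 Further: intracellular parasites grown in NIH/3T3 mouse fibroblasts as host cells; luminescent beta-galactosidase reporter signal from transgenic T. cruzi replicating inside host cells; inhibitors lower the luminescence signal.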 It is filed as functional, cell-based.
Experiment [15] can be described thus: non-specific cell cytotoxicity, dose response, cytotoxicity control for PAX8 inhibitor project, plate reader, dry powder samples (AID 743021). The experiment is classed as functional, cell-based.
The nature of experiment [16]: cytotoxicity toward NIH3T3 fibroblasts, dose response, counter-screen, cell-based, ATP luminescence, mouse fibroblasts (AID 2010).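 Further: cells exposed to compound for about 90 hours before reading.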 It is filed as functional.
Experiment [17] has as its target C-C chemokine receptor type 6 (Homo sapiens, UniProt P51684). Kind of experiment: CCR6 receptor antagonists, dose response, cell-based, luminescent beta-arrestin readout (AID 504728). It is filed as functional.
In the next experiment the test system is INS1. Kind of experiment: beta cell apoptosis inhibitors, cytokine rescue, dose response, luminescence, retest (AID 449756).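 Further: cell death triggered by IL-1 beta plus TNF-alpha plus IFN-gamma mixture; protective hits raise ATP signal compared with cytokine alone wells.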 It is filed as functional, cell-based. As to conditions: Rattus norvegicus.
For experiment [18], the target named is T4, Heat shock factor protein 1 (Mus musculus, UniProt P38532).
T4 sequence (P38532 whole entry): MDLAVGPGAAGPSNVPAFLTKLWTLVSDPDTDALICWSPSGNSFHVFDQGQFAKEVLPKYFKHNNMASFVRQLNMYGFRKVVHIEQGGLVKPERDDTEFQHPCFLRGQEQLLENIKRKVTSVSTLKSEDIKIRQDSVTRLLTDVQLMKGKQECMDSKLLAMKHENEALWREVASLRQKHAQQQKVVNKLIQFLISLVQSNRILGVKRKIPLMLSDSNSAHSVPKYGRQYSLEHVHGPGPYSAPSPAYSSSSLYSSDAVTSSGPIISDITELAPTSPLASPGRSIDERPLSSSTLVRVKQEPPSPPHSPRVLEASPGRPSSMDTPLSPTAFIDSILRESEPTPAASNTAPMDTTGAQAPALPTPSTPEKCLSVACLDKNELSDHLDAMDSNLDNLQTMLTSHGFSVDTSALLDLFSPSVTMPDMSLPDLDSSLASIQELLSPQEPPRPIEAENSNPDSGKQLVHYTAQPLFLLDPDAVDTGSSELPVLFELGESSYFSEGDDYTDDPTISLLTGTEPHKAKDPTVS
The experiment in a line: inhibition of MG132-induced HSE-luciferase signal, confirmation, cell-based, NIH3T3, luminescence, dose retest (AID 2382).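 Further: NIH3T3 fibroblasts with HSF1-driven luciferase reporter stressed by proteasome inhibitor MG132; luminescence from HSF1-driven luciferase expression after 8 hours of MG132 stress.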 It is filed as functional.

SMILES strings stand for the structures. Active and inactive are the calls of the source.

For orientation: IC50 means the concentration that inhibits the measured activity by half. Usually AC50 stands for the midpoint of the concentration-response curve, whichever way the signal moves. The EC50 is the concentration giving half of the maximal effect.

Delta-type opioid receptor, sequence (P41143 whole entry): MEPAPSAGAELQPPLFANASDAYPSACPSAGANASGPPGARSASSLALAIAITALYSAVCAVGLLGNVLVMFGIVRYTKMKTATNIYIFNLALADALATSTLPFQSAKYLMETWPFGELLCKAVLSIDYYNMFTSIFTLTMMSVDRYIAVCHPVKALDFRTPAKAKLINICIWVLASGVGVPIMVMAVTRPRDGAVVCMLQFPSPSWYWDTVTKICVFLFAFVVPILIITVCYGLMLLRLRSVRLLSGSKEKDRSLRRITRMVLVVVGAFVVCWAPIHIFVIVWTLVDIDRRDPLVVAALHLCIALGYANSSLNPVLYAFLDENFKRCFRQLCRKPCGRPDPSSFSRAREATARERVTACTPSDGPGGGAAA
5-hydroxytryptamine receptor 5A, sequence (P47898 whole entry): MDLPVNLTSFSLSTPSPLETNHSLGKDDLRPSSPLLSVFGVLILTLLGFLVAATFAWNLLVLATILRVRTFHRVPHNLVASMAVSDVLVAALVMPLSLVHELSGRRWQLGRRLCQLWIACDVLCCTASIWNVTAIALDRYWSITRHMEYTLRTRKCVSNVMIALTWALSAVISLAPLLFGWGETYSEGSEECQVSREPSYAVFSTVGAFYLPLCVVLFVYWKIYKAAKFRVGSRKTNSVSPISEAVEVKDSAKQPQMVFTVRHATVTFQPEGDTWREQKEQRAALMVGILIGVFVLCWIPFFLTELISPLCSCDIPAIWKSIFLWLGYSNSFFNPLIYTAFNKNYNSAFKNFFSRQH
C-C chemokine receptor type 6, sequence (P51684 whole entry): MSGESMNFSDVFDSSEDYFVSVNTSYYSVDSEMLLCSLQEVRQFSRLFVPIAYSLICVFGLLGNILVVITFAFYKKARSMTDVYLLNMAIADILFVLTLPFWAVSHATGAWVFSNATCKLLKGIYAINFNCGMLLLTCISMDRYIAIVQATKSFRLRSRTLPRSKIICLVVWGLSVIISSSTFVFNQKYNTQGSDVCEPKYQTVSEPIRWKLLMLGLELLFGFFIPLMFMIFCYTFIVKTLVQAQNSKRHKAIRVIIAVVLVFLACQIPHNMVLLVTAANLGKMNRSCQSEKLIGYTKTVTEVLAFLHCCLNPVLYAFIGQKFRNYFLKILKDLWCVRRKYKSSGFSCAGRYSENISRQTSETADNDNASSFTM
Paired box protein Pax-8, sequence (Q06710 whole entry): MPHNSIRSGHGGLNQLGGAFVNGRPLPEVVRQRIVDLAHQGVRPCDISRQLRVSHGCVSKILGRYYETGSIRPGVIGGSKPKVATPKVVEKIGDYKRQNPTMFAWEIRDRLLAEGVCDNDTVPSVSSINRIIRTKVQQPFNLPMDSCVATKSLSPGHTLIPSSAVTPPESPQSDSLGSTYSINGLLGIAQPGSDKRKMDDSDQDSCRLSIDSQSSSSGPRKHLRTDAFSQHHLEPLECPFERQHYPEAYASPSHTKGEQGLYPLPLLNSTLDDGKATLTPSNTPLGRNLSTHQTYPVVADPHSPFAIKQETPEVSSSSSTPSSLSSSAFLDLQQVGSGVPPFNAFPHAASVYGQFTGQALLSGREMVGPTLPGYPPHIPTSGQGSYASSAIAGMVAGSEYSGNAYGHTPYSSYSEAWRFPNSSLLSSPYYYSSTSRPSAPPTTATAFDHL
Mu-type opioid receptor, sequence (P35372 whole entry): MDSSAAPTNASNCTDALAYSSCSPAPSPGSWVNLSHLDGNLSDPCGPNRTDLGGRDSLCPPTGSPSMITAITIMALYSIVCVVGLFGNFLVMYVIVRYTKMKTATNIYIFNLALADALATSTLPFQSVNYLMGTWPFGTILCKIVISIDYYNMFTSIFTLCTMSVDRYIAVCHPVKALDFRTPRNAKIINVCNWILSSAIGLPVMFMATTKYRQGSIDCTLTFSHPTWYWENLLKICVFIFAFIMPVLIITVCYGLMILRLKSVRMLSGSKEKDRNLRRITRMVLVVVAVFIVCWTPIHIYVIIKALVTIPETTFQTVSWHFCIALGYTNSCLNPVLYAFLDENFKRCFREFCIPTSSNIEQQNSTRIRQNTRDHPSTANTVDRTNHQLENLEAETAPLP
Beta-galactosidase, sequence (Q8VNN2 whole entry): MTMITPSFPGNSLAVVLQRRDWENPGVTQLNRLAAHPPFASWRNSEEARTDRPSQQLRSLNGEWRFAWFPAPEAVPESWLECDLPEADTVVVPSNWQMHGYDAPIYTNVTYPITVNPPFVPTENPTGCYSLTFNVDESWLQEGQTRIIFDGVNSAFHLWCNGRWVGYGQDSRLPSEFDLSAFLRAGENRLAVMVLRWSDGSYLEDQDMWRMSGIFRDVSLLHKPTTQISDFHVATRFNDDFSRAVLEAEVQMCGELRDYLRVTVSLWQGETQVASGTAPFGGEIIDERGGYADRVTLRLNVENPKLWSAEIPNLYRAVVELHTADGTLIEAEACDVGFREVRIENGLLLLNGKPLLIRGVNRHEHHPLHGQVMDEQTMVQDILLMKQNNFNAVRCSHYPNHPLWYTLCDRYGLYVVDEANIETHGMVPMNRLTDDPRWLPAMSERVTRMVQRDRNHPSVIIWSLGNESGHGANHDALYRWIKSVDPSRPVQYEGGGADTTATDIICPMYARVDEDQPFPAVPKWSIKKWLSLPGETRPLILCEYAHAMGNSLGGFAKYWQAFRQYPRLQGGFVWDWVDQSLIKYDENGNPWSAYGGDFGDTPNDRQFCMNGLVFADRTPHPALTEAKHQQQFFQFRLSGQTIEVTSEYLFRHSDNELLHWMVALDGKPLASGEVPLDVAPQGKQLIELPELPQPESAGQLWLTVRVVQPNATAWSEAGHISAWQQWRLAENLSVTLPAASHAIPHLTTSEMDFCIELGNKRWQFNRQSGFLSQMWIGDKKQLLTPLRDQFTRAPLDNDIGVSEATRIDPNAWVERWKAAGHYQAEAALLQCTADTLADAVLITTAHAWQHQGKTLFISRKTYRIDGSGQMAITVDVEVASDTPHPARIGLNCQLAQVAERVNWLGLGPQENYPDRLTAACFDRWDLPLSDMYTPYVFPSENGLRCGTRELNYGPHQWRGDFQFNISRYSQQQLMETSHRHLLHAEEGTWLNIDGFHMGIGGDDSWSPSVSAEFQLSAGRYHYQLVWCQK

As to `N=c1n(Cc2ccc(Cl)cc2)c2ccccc2n1CC(O)COc1ccccc1` (stereo unspecified), the IC50 was 15 µM (active) in experiment [1] and 14.1 µM (active) in the experiment “cells”. In addition, the CC50 in experiment [2] is 11.8 µM (active); in [4], 11.6 µM (active); in experiment [7] it was 8.02 µM (active); in experiment [9], 11.8 µM (active). For the same compound, the AC50 in experiment [3] is 9.25 µM (active); in [5], 2.34 µM (active); in experiment [6] it was 14.2 µM (active); in [8], 3.61 µM (active); in the experiment with A-375, 13.9 µM (active).
As to `COc1ccc(C(CNC(=O)c2ccc(S(=O)(=O)N(C)C)cc2)N(C)C)cc1` (stereo unspecified), the EC50 was > 92.5 µM (inactive) in [10], > 92.5 µM (inactive) at Mu-type opioid receptor, 85.6 µM (inactive) in experiment [11] and 1.5 µM (active) in experiment [12].
Turning to `Cc1ccc(C(=O)N/C(=C\c2ccc(-c3ccc(Br)cc3)o2)C(=O)NCCCN(C)C)cc1`, the AC50 in [3] was 6.84 µM (active); at Paired box protein Pax-8 it was 17.4 µM (active); in [13] it was 2.81 µM (active); in [15] it was 61.2 µM (active); in the experiment on A-375, 17.7 µM (active); with INS1 it was 7.33 µM (active). In addition, the figures for the IC50 (at Beta-galactosidase; in experiment [17]) were > 66.6 µM (inactive) and 24.6 µM (inactive), respectively. For the same compound, the EC50 in [14] was 1.56 µM (active); in experiment [16] it was > 30 µM (not active); in experiment [18], 24.1 µM (active).
